Experimental data from paper PMC8443597, “A prostate-specific membrane antigen activated molecular rotor for real-time fluorescence imaging” (Nature Communications, 2021).

Tests used:
[1] = target: T1, prostate-specific membrane antigen (PSMA) (Homo sapiens, UniProt Q04609); assay: fluorescence saturation binding ([…]) with rhPSMA; IC50 from […]H-NAAG radioenzymatic assay; assay type: biochemical
T1 construct: gene FOLH1; extracellular domain of human PSMA (rhPSMA; amino acids 44–750)

[2] = target: T1, prostate-specific membrane antigen (PSMA); assay: X-ray crystal structure ([…] Å); fluorescence saturation binding; IC50 from […]H-NAAG radioenzymatic assay; assay type: biochemical

T1 sequence (Q04609 44-750): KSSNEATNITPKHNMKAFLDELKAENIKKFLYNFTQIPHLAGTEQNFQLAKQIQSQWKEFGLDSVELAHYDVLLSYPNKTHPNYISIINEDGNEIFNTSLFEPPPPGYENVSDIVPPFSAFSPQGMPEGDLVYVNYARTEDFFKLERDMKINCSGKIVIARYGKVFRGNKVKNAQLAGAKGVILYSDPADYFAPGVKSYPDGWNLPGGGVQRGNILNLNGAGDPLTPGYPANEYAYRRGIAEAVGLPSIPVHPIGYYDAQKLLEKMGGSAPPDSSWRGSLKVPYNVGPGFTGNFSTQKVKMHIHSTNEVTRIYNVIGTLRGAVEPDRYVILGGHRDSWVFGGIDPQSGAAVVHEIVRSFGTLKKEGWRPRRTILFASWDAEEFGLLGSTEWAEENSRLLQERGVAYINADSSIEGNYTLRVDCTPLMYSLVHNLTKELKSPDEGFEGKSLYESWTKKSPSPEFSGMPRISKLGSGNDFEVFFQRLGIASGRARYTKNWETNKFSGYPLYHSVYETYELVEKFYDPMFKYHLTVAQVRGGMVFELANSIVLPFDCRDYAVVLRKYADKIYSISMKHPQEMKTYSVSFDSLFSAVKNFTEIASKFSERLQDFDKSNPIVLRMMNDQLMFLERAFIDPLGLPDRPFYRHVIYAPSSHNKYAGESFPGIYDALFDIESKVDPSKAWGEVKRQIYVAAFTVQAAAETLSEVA

IC50 [1] [pM] | IC50 [2] [pM] | SMILES
118 | – | COC(=O)CCN1CCCc2cc(C=C(C#N)C(=O)NCCCC[C@H](NC(=O)N[C@@H](CNC(=O)C(=O)O)C(=O)O)C(=O)O)ccc21 [ODAP-436, (4 S,8 S)-15-cyano-16-(1-(3-methoxy-3-oxopropyl)-1,2,3,4-tetrahydroquinolin-6-yl)-1,6,14-trioxo-2,5,7,13-tetraazahexadec-15-ene-1,4,8-tricarboxylic acid]
99.6 | – | COC(=O)CCN1CCCc2cc(-c3ccc(C=C(C#N)C(=O)NCCCC[C@H](NC(=O)N[C@@H](CNC(=O)C(=O)O)C(=O)O)C(=O)O)s3)ccc21 [ODAP-490, (4 S,8 S)-15-cyano-16-(5-(1-(3-methoxy-3-oxopropyl)-1,2,3,4-tetrahydroquinolin-6-yl)thiophen-2-yl)-1,6,14-trioxo-2,5,7,13-tetraazahexadec-15-ene-1,4,8-tricarboxylic acid]
– | 63.1 | COC(=O)CCN1CCCc2cc(-c3ccc(C=C(C#N)C(=O)NCCCC[C@H](NC(=O)N[C@@H](CCC(=O)O)C(=O)O)C(=O)O)s3)ccc21 [Glu-490, (((S)-1-carboxy-5-(2-cyano-3-(5-(1-(3-methoxy-3-oxopropyl)-1,2,3,4-tetrahydroquinolin-6-yl)thiophen-2-yl)acrylamido)pentyl)carbamoyl)-L-glutamic acid]
